The values that follow come from patent US10618900B2, “5-aromatic alkynyl substituted benzamide compound and preparation method, pharmaceutical composition, and use thereof” (SHANGHAI INSTITUTE OF MATERIA MEDICA, CHINESE ACADEMY OF …, priority 2015, dated 2020).

Structures are written as SMILES. Bounds are passed on as bounds.

One experiment addresses mGluR5 (Homo sapiens (Human), UniProt P41594). Briefly: In vitro activity test for mGluR5, HDB Fluo-8 calcium fluorescence detection (FLIPR). The experiment is classed as cell-based. To be noted: HEK293/mGluR5 cell line. The source says: Experimental instrument: FLIPR Tetra real-time fluorescence imaging analysis system
Experimental method: HDB Fluo-8 calcium fluorescence detection method
Experimental principle: HDB Fluo-8 calcium ion fluorescence detection method is a fast, simple and reliable fluorescence detection method of intracellular calcium concentration changes. The Fluo 8-AM fluorescent dye is an […] derivative of Fluo 8 which can easily penetrate the cell membrane into the cell by culture. The fluorescent dye into the cell will be hydrolyzed by intracellular esterase, the resulting Fluo 8 cannot easily pass through the lipid bimolecular membrane as a polar molecule, and will retain in the cell, and combine with calcium (Ca^2+) to produce fluoresces.
Cells expressing GPCR receptor protein (mGluR5) were first calibrated with a calcium ion sensitive fluorescent probe and then stimulated with the compound. After stimulation, the activation of the receptor lead to the calcium ion mobilization, and the fluorescent probe captures the calcium ion to induce the fluorescence signal. The signal can be read by a fluorescent plate reader. The fluorescent plate reader contains a sampling head for compound addition, thus enabling the change of the fluorescence value of the compound be read in real time. […]

A further experiment relates to ICR mice. Briefly: Mouse forced swimming experiment. The experiment is classed as in vivo. To be noted: positive control, 10 mg/kg intraperitoneal, later 4 min of 6 min. The protocol:
Experimental principle: The principle of Mouse Forced Swimming Test (FST) is to allow the mouse to swim in a limited space from which it can not escape, thus inducing animal to non-movement state which reflects the animal's desperate behavior.
Experimental animals: ICR mice, 20-28 g, both male and female
Sample treatment: The test compounds were ground with 1% CMC (sodium carboxymethyl cellulose) aqueous solution to prepare a homogeneous solution. In vivo dose was 5 mg/kg, 10 mg/kg and 20 mg/kg, the compound was oral administered at 0.1 ml/10 g volume/body weight. Positive control drugs (amitriptyline and fluoxetine) were dissolved with 0.9% saline, in vivo dose was 10 mg/kg, administered by intraperitoneal injection at 0.1 ml/10 g volume/body weight. (Note: the mice were fasted for 8 h and drinked water ad libitum before the compound was given.)
Experimental Methods: mice were grouped randomly. […] On the second day of the test, the mice were orally administered the compound. After 1 hour (0.5 hours after intraperitoneal injection), the mice were then put in water to record the immobility time in the later 4 min of 6 min.

In experiment [1] the test system is mice. Briefly: Mouse tail suspension experiment. The experiment is classed as in vivo. The following applies: positive control, FIG. 1. The text has this: Experimental principle: Tail Suspension Test (TST) is a classic method which can quickly evaluate the efficacy of antidepressant drugs, excitement drugs, and sedative drugs. The principle is to use the status that the mouse give up struggle and enter the unique depression status after the tail was suspended and the attempt to escape was failed.
Experimental method: 20-24 g male mice were selected and the site at 2 cm part from the end of the tail was attached to a horizontal stick, so that the animal entered inverted state, and it's head was about 5 cm from the table, and boards were hung on both sides to separate the animal's sight. The immobility time of the administration group and the control group within 6 min were compared.

For experiment [2], the system named is mice. Briefly: Head twitches test (5-HTP induced). The experiment is classed as in vivo. To be noted: positive control, FIG. 2. The source says: Experimental principle: Model Head Thrust Test (HTT) is first raised by Corne et al. in 1963, head twitches syndrome caused by 5-HT receptor excitement may be mediated through the 5-HT2 receptor. The head twitches behavior induced by 5-HTP in mice is more sensitive to antidepressants with different action mechanisms, such as citalopram, fluvoxamine and other 5-HT retake inhibitors, desipramine, maprotiline, nomifensine and other NA retake inhibitors and imipramine acting on both 5-HT and NA system.
Experimental method: 20-24 g male mice were selected. 3 h before the test, 100 mg/kg pargyline was intraperitoneal injected and then intraperitoneal injected with test drugs or saline. 5-HTP (5 mg/kg, ip) was injected 30 min later. After 10 min, the observation was started and the number of mice head twitches in 6 min was recorded. The numbers of the head twitches of experimental group and the saline control group were compared.

The target in the next experiment is mGluR1 (Homo sapiens (Human), UniProt Q13255). Briefly: mGluR5/1 selectivity test, HEK293/mGluR1 cell line, Fluo-8 calcium. The experiment is classed as cell-based. The following applies: for IC50: HEK293/mGluR1 cell line; for mGluR5/mGluR1: selectivity ratio of IC50 values. The text has this:
Experimental material: HEK293/mGluR5 cell line, HEK293/mGluR1 cell line, Fluo-8 calcium ion fluorescent dye, positive control JNJ16259685

Chain of mGluR5 (P41594 21-1212): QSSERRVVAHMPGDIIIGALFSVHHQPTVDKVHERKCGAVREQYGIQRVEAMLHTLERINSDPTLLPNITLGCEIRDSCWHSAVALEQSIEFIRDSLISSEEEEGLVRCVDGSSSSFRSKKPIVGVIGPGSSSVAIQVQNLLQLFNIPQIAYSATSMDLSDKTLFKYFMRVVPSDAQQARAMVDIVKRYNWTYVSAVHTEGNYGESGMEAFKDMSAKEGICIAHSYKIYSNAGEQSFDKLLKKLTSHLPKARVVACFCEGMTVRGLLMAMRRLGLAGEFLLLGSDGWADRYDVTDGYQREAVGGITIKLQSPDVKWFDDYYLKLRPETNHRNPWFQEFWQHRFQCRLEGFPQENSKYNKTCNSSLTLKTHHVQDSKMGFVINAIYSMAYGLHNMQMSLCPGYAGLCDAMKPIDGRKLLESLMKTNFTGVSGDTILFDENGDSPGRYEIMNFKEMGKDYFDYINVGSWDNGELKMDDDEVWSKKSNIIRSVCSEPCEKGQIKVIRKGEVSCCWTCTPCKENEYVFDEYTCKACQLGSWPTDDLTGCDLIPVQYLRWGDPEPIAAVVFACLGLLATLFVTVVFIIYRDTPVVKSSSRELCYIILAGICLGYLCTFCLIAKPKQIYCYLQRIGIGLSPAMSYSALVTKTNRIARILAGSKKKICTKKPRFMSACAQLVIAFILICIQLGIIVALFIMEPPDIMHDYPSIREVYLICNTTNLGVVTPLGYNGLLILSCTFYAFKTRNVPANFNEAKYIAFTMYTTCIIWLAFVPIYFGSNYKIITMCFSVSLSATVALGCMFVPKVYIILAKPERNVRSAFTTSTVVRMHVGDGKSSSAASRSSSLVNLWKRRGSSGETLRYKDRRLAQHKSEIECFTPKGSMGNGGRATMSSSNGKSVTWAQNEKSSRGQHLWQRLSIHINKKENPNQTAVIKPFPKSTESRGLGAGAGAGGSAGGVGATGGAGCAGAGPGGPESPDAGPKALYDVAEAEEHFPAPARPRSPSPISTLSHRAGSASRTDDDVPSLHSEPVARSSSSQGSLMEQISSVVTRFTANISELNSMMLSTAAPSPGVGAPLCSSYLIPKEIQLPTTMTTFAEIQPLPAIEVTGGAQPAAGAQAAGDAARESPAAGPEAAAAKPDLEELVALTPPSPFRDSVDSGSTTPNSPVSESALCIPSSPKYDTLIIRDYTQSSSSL
Chain of mGluR1 (Q13255 19-1194): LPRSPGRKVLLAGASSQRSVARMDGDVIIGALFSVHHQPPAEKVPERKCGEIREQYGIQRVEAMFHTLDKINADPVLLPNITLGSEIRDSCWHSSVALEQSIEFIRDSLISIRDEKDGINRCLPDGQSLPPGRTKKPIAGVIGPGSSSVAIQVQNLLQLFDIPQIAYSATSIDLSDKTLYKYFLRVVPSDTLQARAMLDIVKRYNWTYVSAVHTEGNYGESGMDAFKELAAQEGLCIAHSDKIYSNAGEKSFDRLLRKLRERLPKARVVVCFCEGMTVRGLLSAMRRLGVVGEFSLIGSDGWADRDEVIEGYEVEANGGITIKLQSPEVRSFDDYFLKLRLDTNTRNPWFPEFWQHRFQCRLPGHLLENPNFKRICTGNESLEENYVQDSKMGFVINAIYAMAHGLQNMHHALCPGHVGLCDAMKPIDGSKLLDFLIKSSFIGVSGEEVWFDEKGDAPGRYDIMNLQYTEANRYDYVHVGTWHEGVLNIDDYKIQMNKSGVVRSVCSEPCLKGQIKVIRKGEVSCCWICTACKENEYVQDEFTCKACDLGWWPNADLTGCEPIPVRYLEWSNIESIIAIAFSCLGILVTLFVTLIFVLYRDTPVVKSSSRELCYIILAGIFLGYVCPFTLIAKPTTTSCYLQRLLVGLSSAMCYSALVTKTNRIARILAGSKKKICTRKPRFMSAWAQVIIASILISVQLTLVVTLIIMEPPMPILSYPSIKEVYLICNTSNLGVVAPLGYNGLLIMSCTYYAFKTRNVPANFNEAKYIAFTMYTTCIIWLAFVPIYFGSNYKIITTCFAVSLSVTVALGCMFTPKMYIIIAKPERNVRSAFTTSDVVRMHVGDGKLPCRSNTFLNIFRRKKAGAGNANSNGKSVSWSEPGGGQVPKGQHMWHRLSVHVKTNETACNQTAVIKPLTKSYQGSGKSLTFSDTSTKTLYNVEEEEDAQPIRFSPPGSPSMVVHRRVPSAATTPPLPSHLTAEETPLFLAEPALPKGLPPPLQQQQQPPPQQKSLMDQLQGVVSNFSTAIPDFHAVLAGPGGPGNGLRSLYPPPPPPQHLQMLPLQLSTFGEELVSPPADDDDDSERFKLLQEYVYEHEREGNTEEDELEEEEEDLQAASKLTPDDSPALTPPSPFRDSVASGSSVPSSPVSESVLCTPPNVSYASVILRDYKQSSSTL

Take `Cc1ccc(C#Cc2ccccn2)cc1C(=O)Nc1ccc(F)cc1` [ZD040, N-(4-fluorophenyl)-2-methyl-5-(pyridin-2-ethynyl)benzamide]: at mGluR5, the 50% inhibitory concentration (IC50) was 104 nM.
On to `CNCCC(Oc1ccc(C(F)(F)F)cc1)c1ccccc1` (stereo not shown) [Fluoxetine, fluoxetine, reference compound], for which, in the experiment on ICR mice, the “immobility time (%) Mean ± SEM” value came out at 84.79 ± 12.73%. Moreover, in the experiment on mice [1], the “immobility time in the mouse tail suspension test” value is “significantly improve”. Also, the “number of head twitches” value with mice [2] is “significantly improve”.
`O=C(Nc1ccc(F)cc1)c1cc(C#Cc2ccncc2)ccc1F` [ZD039, 2-fluoro-N-(4-fluorophenyl)-5-(pyridin-4-ethynyl)benzamide]: at mGluR5, the IC50 came out at 382 nM.
For `O=C(Nc1cccnc1)c1cc(C#Cc2ccccn2)ccc1F` [ZD042, 2-fluoro-5-(pyridin-2-ethynyl)-N-(pyridin-3-yl)benzamide], the half-inhibitory concentration (IC50) at mGluR5 is 19.4 nM; on mGluR1, above 100000 nM. In addition, at mGluR1, the mGluR5/mGluR1 is given as above 5155.
The corresponding values for `O=C(Nc1ccc(F)cc1)c1cc(C#Cc2ccccn2)ccc1Cl` [ZD036, 2-chloro-N-(4-fluorophenyl)-5-(pyridin-2-ethynyl)benzamide] are 20.3 nM, above 100000 nM and above 4929.
For `O=C(c1cc(C#Cc2ccccn2)ccc1F)N1CCc2ccccc2C1` [ZD046, (3,4-dihydro-isoquinolin-2(1H)-yl)(2-fluoro-5-(pyridin-2-ylethynyl)phenyl) methanone], at mGluR5, the IC50 was determined as 15.2 nM. Besides, on mGluR1, the half-inhibitory concentration (IC50) is above 100000 nM and the mGluR5/mGluR1 was above 6601.
Taken in the same sequence, the figures for `O=C(Nc1ccc(F)cc1)c1cc(C#Cc2ccccn2)ccc1F` [ZD001, 2-fluoro-5-(pyridin-2-ethynyl)-N-(4-fluorophenyl)benzamide] were 13.9 nM, above 100000 nM and above 7194.
Taken in the same sequence, the figures for `Cc1nc(C#Cc2ccc(F)c(C(=O)N3CCc4ccccc4C3C)c2)cs1` (stereo not shown) [ZD049, (2-fluoro-5-((2-methyl-thiazol-4-yl)ethynyl)phenyl)(1-methyl-3,4-dihydro-isoquinolin-2(1H)-yl)methanone] were 38 nM, above 100000 nM and above 2632.
`Cc1nc(C#Cc2cccc(C(=O)Nc3cccc(F)c3)c2)cs1` [ZD017, N-(3-fluorophenyl)-3-((2-methylthiazol-4-yl)ethynyl)benzamide]: the IC50 at mGluR5 is 133 nM.
Consider `CN(C)CCC=C1c2ccccc2CCc2ccccc21` [amitriptyline, reference compound], for which the “immobility time (%) Mean ± SEM” value is on record as “significantly improve” in the experiment on ICR mice and 15.34 ± 5.96 % in the experiment with ICR mice (listed as CCAmitriptyline).
Consider `Cc1nc(C#Cc2ccc(F)c(C(=O)N3CCc4ccccc4C3)c2)cs1` [ZD047, (3,4-dihydro-isoquinolin-2(1H)-yl)(2-fluoro-5-((2-methyl-thiazol-4-yl)ethynyl)phenyl)methanone], for which the results for the concentration for half-maximal inhibition (IC50) at mGluR5 and on mGluR1 were 6.65 nM and above 100000 nM, respectively. Besides, the mGluR5/mGluR1 at mGluR1 is given as above 15044.
As for `Cc1nc(C#Cc2cccc(C(=O)Nc3ccc(C#N)cc3)c2)cs1` [ZD010, N-(4-cyanophenyl)-3-((2-methylthiazol-4-yl)ethynyl)benzamide], the IC50 at mGluR5 is 86.6 nM.
Consider `Cc1nc(C#Cc2ccc(C)c(C(=O)Nc3ccc(F)cc3)c2)cs1` [ZD041, N-(4-fluorophenyl)-2-methyl-5-((2-methyl-thiazol-4-yl)ethynyl)benzamide], for which the IC50 on mGluR5 came out at 108 nM.
The same measure, in the same setting: then `Cc1nc(C#Cc2cccc(C(=O)Nc3cccc(C#N)c3)c2)cs1` [ZD019, N-(3-cyanophenyl)-3-((2-methylthiazol-4-yl)ethynyl)benzamide], with 134 nM.
Turning to `Cc1nc(C#Cc2ccc(F)c(C(=O)Nc3ccc(F)cc3)c2)cs1` [ZD004, 2-fluoro-N-(4-fluorophenyl)-5-((2-methyl-thiZaol-4-yl)ethynyl)benzamide], the concentration for half-maximal inhibition (IC50) on mGluR5 amounted to 11 nM. On mGluR1, the half-maximal inhibitory concentration (IC50) was above 100000 nM and the mGluR5/mGluR1 was above 9091.
`Cc1nc(C#Cc2ccc(F)c(C(=O)Nc3ccc(C#N)cc3)c2)cs1` [ZD045, N-(4-cyanophenyl)2-fluoro-5-((2-methyl-thiazol-4-yl)ethynyl)benzamide]: the half-inhibitory concentration (IC50) at mGluR5 amounted to 53.5 nM.
The same measure, in the same setting: then `CC1c2ccccc2CCN1C(=O)c1cc(C#Cc2ccccn2)ccc1F` (stereo not shown) [ZD048, (2-fluoro-5-(pyridin-2-ylethynyl)phenyl) (1-methyl-3,4-dihydro-isoquinolin-2(1H)-yl)methanone], with 71.3 nM.
`COC1CCC(C(=O)c2ccc3nc4c(cc3c2)CCCO4)CC1` (stereo not shown) [JNJ16259685, reference compound]: on mGluR1 (positive control), the IC50 turned out to be 91.2 nM.
Turning to `Cc1nc(C#Cc2cccc(C(=O)N3CCc4ccccc4C3C)c2)cs1` (stereo not shown) [ZD011], the IC50 at mGluR5 was determined as 32.6 nM.
`Cc1nc(C#Cc2cccc(C(=O)Nc3ccccc3)c2)cs1` [ZD014]: at mGluR5, the concentration for half-maximal inhibition (IC50) was 14.8 nM. At mGluR1, the half-maximal inhibitory concentration (IC50) is above 100000 nM and the mGluR5/mGluR1 is listed as above 6757.
Taken in the same sequence, the figures for `Cc1nc(C#Cc2ccc(Cl)c(C(=O)Nc3ccc(F)cc3)c2)cs1` [ZD037, 2-chloro-N-(4-fluorophenyl)-5-((2-methyl-thiazol-4-yl)ethynyl)benzamide] were 7.31 nM, above 100000 nM and above 13676.
`N#Cc1ccc(NC(=O)c2cc(C#Cc3ccccn3)ccc2F)cc1` [ZD044, N-(4-cyanophenyl)-2-fluoro-5-(pyridin-2-ethynyl)benzamide]: the concentration for half-maximal inhibition (IC50) on mGluR5 is 86.5 nM.

The IC50 is the concentration at which inhibition is half-maximal.
